Each structure is given as a SMILES string.

What is called inhibition in vivo is the change of the read-out against control, counted positive when it falls.

This assay deals with Rattus norvegicus. As to the kind of experiment: Anti-inflammatory activity in Rattus norvegicus albino (rat) assessed as inhibition of carrageenan-induced paw edema at 100 mg/kg, po administered 1 to 3 hr prior challenge. Format: functional.
For the compound `CC(C)Cc1ccc(C(C)C(=O)O)cc1` (centres undefined) [IBUPROFEN], the inhibition in vivo at 100 mg/kg stood at 49%. The value for `CCCCc1nc(Cl)c(C=O)n1CC(=O)c1ccc(Cl)cc1` was 28%; that for `CCCCc1nc(Cl)c(C=O)n1CC(=O)c1ccccc1` was 26%. For `CCCCc1nc(Cl)c(C=O)n1Cc1cc2c(cc1C)OCO2`, the inhibition in vivo at 100 mg/kg was 26%.

These data come from ChEMBL document CHEMBL3046866, “Microwave-assisted synthesis and evaluation of anti-inflammatory activity of new series of N-substituted 2-butyl-5-chloro-3H-imidazole-4-carbaldehyde derivatives” (2009).
